The data set in a line: in vivo. The following applies: mouse, 30 mg/kg.

Where “and” joins values, the source holds several entries; their conditions need not be identical. Identical values can stand only once.

Turning to `O=S(=O)(N1CCC(n2c(C3CC3)nc3ccc(C(c4ccc(Cl)cc4)c4ccc(Cl)cc4)cc32)CC1)C(F)(F)F` [Example 335], the concentration at 2 h was 7660 ng/mL and 208 ng/g.
